{"source": "patent US10435394B2", "about": "“Plant growth-promotion agent and method for promoting plant growth” (RIKEN, priority 2014, dated 2019)", "type_in_all_cases": "in vivo", "key": {"[1]": {"system": "Arabidopsis seeds (Columbia)", "assay": "Plant growth promoting activity test using Arabidopsis, Experimental Method (2)", "details": "15, 30, 60 μM; for growth of aerial leaves: Day 26 of sprouting, FIGS. 15 and 16; for growth of aerial leaves (average leaf area per individual): Day 27 of sprouting, FIGS. 10 and 11; for plant growth promoting effects (state of sprouting): Day 22, FIGS. 6 and 7", "experimental": "(§1) A ½ MS medium (agarose: 0.9%; sucrose: 1.5%; Murashige & Skoog plant culture medium×½ concentration) was prepared and autoclaved. Then, the test compounds were separately added thereto at 0 (DMSO alone), 15, 30, and 60 μM and solidified in a plastic petri dish. Arabidopsis seeds (Columbia) were sterilized with ethanol and sown to sprout, followed by observation of conditions of leaves and roots after sprouting. DMSO alone was added as a solvent for a control."}, "Tomato seeds (Micro-Tom)": {"system": "Tomato seeds (Micro-Tom)", "assay": "Plant growth promoting effects on tomato", "details": "5, 15, 30 μM in 1/2 MS medium; Day 73 of sprouting; FIG. 17", "experimental": "A ½ MS medium (agarose: 0.9%; sucrose: 1.5%; Murashige & Skoog plant culture medium×½ concentration) was prepared and autoclaved. Then, the compound 1 (PPZ) was added thereto at 0 (DMSO alone), 5, 15, and 30 μM and solidified in a plastic pot. Tomato seeds (Micro-Tom) were sterilized with hypochlorous acid and sown to sprout, followed by observation of conditions of leaves and stems after sprouting. DMSO alone was added as a solvent for a control."}, "rice (Nipponbare)": {"system": "rice (Nipponbare)", "assay": "Plant growth promoting effects upon rice", "details": "15 or 30 μM in water absorbed from the bottom of the pot from Day 7; Day 21 of sprouting; FIG. 18", "experimental": "A plant pot containing rice culture soil was prepared and rice (Nipponbare) was sown therein. Rice was raised with distilled water until Day 7 of sprouting. Rice was allowed to absorb distilled water containing the compound 1 (PPZ) at a concentration of 0 (DMSO alone), 15, or 30 μM from the bottom of the pot from Day 7 of sprouting. Water used was discarded every 7 days and replaced by fresh water. Rice was photographed and the plant length of rice was measured on Day 21 of sprouting or Day of 14 from the start of treatment."}, "[2]": {"system": "Arabidopsis seeds (Columbia)", "assay": "Plant growth promoting activity test using Arabidopsis, Experimental Method (1)", "details": "5, 15, 30, 45, 60 μM"}, "[3]": {"system": "Arabidopsis seeds (Columbia)", "assay": "Plant growth promoting activity test using Arabidopsis, Experimental Method (1)", "details": "for plant growth promoting effects (state of sprouting): 60 μM in 1/2 MS medium, Day 23, FIG. 1", "experimental": "as §1, with “at” for “at 0 (DMSO alone), 15, 30, and”, “leaves, roots,” for “leaves”, “stems” for “roots”"}}, "data": [{"molecule": "c1cc2c(cc1CN1CCNCC1)OCO2", "note": "[Compound 1, 1-piperonylpiperazine]", "values": [{"measurement": "growth of aerial leaves", "setting": "[1]", "result": "activity of promoting the growth of aerial leaves at the late growth stage"}, {"measurement": "growth of aerial leaves (average leaf area per individual)", "setting": "[1]", "result": "activity of promoting growth of aerial leaves at the late growth stage"}, {"measurement": "growth of aerial leaves and stems of tomato", "setting": "Tomato seeds (Micro-Tom)", "result": "activity of promoting the growth of aerial leaves and stems of tomato"}, {"measurement": "growth of aerial leaves and stems of rice (plant length)", "setting": "rice (Nipponbare)", "result": "activity of promoting the growth of aerial leaves and stems of rice"}, {"measurement": "development/growth of lateral roots", "setting": "[2]; Day 13 of sprouting, constant light irradiation, FIG. 2", "result": "activity of promoting development/growth of lateral roots in the early growth stage"}, {"measurement": "growth of aerial leaves and petioles", "setting": "[2]; Day 21 of sprouting, FIG. 3", "result": "activity of promoting growth of aerial leaves and petioles in the late growth stage"}, {"measurement": "branching", "setting": "[2]; Day 35 of sprouting, FIG. 4", "result": "activity of promoting branching"}, {"measurement": "salt tolerance", "setting": "[2]; sodium chloride 125 mM, Day 21 of sprouting, FIG. 5", "result": "action of enhancing salt tolerance"}]}, {"molecule": "O=S1(=O)CCN(Cc2ccc3c(c2)OCO3)CC1", "note": "[Compound 21]", "values": [{"measurement": "growth of aerial leaves", "setting": "[1]", "result": "activity of promoting the growth of aerial leaves at the late growth stage"}]}, {"molecule": "c1cc2c(cc1CCN1CCOCC1)OCO2", "note": "[Compound 16]", "values": [{"measurement": "growth of aerial leaves", "setting": "[1]", "result": "activity of promoting the growth of aerial leaves at the late growth stage"}, {"measurement": "growth of aerial leaves (average leaf area per individual)", "setting": "[1]", "result": "activity of promoting growth of aerial leaves at the late growth stage"}]}, {"molecule": "c1cc2c(cc1CN1CCOCC1)OCO2", "note": "[Compound 4]", "values": [{"measurement": "growth of aerial leaves", "setting": "[1]", "result": "activity of promoting the growth of aerial leaves at the late growth stage"}]}, {"molecule": "c1cc2c(cc1CN1CCN(Cc3ccc4c(c3)OCO4)CC1)OCO2", "note": "[Compound 2, 1,4-dipiperonylpiperazine]", "values": [{"measurement": "plant growth promoting effects (state of sprouting)", "setting": "[3]", "result": "decreased plant growth promoting activity and/or growth inhibition"}]}, {"molecule": "CN1CCN(Cc2ccc3c(c2)OCO3)CC1", "note": "[Compound 11]", "values": [{"measurement": "elongation of stems and roots", "setting": "[3]; not shown in figures", "result": "excellent plant growth promoting effects for elongation of stems and roots"}]}, {"molecule": "c1ncn(Cc2ccc3c(c2)OCO3)n1", "note": "[Compound 6]", "values": [{"measurement": "plant growth promoting effects (state of sprouting)", "setting": "[3]", "result": "decreased plant growth promoting activity and/or growth inhibition"}]}, {"molecule": "COc1ccc(CN2CCOCC2)cc1OC", "note": "[Compound 10]", "values": [{"measurement": "elongation of the main root", "setting": "[3]; not shown in figures", "result": "excellent plant growth promoting effects for elongation of the main root"}]}, {"molecule": "COc1ccc(N2CCOCC2)cc1OC", "note": "[Compound 15]", "values": [{"measurement": "plant growth promoting effects (state of sprouting)", "setting": "[1]", "result": "weak plant growth promoting effects"}]}, {"molecule": "COCCN(C)Cc1ccc2c(c1)OCO2", "note": "[Compound 22]", "values": [{"measurement": "growth of aerial leaves", "setting": "[1]", "result": "activity of promoting the growth of aerial leaves at the late growth stage"}]}, {"molecule": "c1cc2c(cc1CN1CCSCC1)OCO2", "note": "[Compound 12]", "values": [{"measurement": "elongation of stems and roots", "setting": "[3]; not shown in figures", "result": "excellent plant growth promoting effects for elongation of stems and roots"}]}, {"molecule": "c1cn(Cc2ccc3c(c2)OCO3)nn1", "note": "[Compound 7]", "values": [{"measurement": "plant growth promoting effects (state of sprouting)", "setting": "[3]", "result": "decreased plant growth promoting activity and/or growth inhibition"}]}, {"molecule": "COc1cc(CN2CCOCC2)cc(OC)c1OC", "note": "[Compound 13]", "values": [{"measurement": "plant growth promoting effects (state of sprouting)", "setting": "[1]", "result": "weak plant growth promoting effects"}]}]}
